15 molecules from US9676728B2, “2-benzyl-benzimidazole complement factor B inhibitors and uses thereof” (Novartis AG, priority 2013, dated 2017) can be followed below.

One assay has as its target human complement factor B (CVF-Bb complex) (Homo sapiens (Human), UniProt P00751). In words: biochemical. On the procedure:
CVF-Bb complex prepared from purified cobra venom factor (1 μM), recombinant human complement factor B (expressed in drosophila cells and purified using standard methods) and human complement factor D (expressed in E. Coli, refolded and purified using standard methods). CVF-Bb complex at 3 nM concentration was incubated with test compound at various concentrations for 1 hour at room temperature in PBS pH 7.4 containing 10 mM MgCl2 and 0.05% (w/v) CHAPS. Human complement C3 substrate purified from plasma was added to a final concentration of 1 μM. After 1 hour incubation at room temperature, the enzyme reaction was stopped by addition of a cocktail of concentrated pan-protease inhibitors. The product of the reaction, C3a, was quantified by means of an enzyme-linked-immunosorbent assay.
What is called IC50 is the concentration that gives 50% inhibition. In the case of `COc1cc(C)cc(C)c1C(N)c1nc2cc(C#N)ccc2[nH]1` (racemic) [Example 7-D, (±)-2-(Amino(2-methoxy-4,6-dimethylphenyl)methyl)-1H-benzo[d]imidazole-5-carbonitrile], half-maximal inhibition (IC50) was put at 8.7 µM.

`CNC(c1nc2cc(C#N)ccc2[nH]1)(c1c(OC)cc(C)cc1OC)C(F)(F)F` (racemic) [Example 12-D (B), (±)-2-(1-(2,6-dimethoxy-4-methylphenyl)-2,2,2-trifluoro-1-(methylamino)ethyl)-1H-benzo[d]imidazole-5-carbonitrile] displayed an IC50 of 11.1 µM. `COc1cc(C)cc(C)c1C(N)(c1nc2cc(C#N)ccc2[nH]1)C(F)(F)F` (racemic) [Example 6-D, (±)-2-(1-Amino-2,2,2-trifluoro-1-(2-methoxy-4,6-dimethylphenyl)ethyl)-1H-benzo[d]imidazole-5-carbonitrile] showed a 50% inhibitory concentration (IC50) of 1.57 µM. As to `CNC(c1nc2cc(C#N)ccc2[nH]1)c1c(OC)cc(C)cc1OC` (racemic) [Example 12-D (A), (±)-2-((2,6-Dimethoxy-4-methylphenyl)(methylamino)methyl)-1H-benzo[d]imidazole-5-carbonitrile], the IC50 was 13.9 µM.

For `CNC(c1nc2cc(C#N)ccc2[nH]1)(c1c(C)cccc1OC)C(F)(F)F` (racemic) [Example 6-C, (±)-2-(2,2,2-Trifluoro-1-(2-methoxy-6-methylphenyl)-1-(methylamino)ethyl)-1H-benzo[d]imidazole-5-carbonitrile], the 50% inhibitory concentration (IC50) worked out at 3.13 µM. Still for that read-out and setting: the value for `COc1cc(C)cc(C)c1C(C)(O)c1nc2cc(C#N)ccc2[nH]1` (racemic) [Example 2-C, (±)-2-(1-Hydroxy-1-(2-methoxy-4,6-dimethylphenyl)ethyl)-1H-benzo[d]imidazole-5-carbonitrile] was 1.45 µM; that for `CNC(c1nc2cc(C#N)ccc2[nH]1)(c1ccc(C)cc1OC)C(F)(F)F` (racemic) [Example 6-A, (±)-2-(2,2,2-Trifluoro-1-(2-methoxy-4-methylphenyl)-1-(methylamino)ethyl)-1H-benzo[d]imidazole-5-carbonitrile] was 0.38 µM; that for `COc1cc(C)cc(C)c1C(O)c1nc2cc(C#N)ccc2[nH]1` (racemic) [Example 1-C, (±)-2-(Hydroxy(2-methoxy-4,6-dimethylphenyl)methyl)-1H-benzo[d]imidazole-5-carbonitrile] was 5.75 µM. With `COc1cc(C)cc(C)c1C(N)(c1nc2cc(C#N)ccc2[nH]1)C1CC1` (racemic) [Example 9-C, (±)-2-(Amino(cyclopropyl)(2-methoxy-4,6-dimethylphenyl)methyl)-1H-benzo[d]imidazole-5-carbonitrile], the concentration for half-maximal inhibition (IC50) came out at 1.5 µM. In turn, `CNC(c1nc2cc(C#N)ccc2[nH]1)(c1c(OC)cc(C)c(Cl)c1C)C(F)(F)F` (racemic) [Example 6-B, (±)-2-(1-(3-Chloro-6-methoxy-2,4-dimethylphenyl)-2,2,2-trifluoro-1-(methylamino)ethyl)-1H-benzo[d]imidazole-5-carbonitrile] yielded an IC50 of 1.98 µM. On the same count and under the same terms, as for `COc1cc(C)cc(C)c1C(O)(c1nc2cc(C#N)ccc2[nH]1)C(F)(F)F` (racemic) [Example 3-B, (±)-2-(2,2,2-Trifluoro-1-hydroxy-1-(2-methoxy-4,6-dimethylphenyl)ethyl)-1H-benzo[d]imidazole-5-carbonitrile], the figure is 0.39 µM. Still for that read-out and setting: the value for `COc1cc(C)cc(C)c1C(C)(N)c1nc2cc(C#N)ccc2[nH]1` (racemic) [Example 8-B, (±)-2-(1-Amino-1-(2-methoxy-4,6-dimethylphenyl)ethyl)-1H-benzo[d]imidazole-5-carbonitrile] was 6.9 µM.

The target in the next assay is Recombinant human factor B (Homo sapiens (Human), UniProt P00751). The assay is described as follows: Human Complement Factor B TR-FRET Assay (displacement of Cy5-labeled ligand). (In general: Time-resolved FRET reads energy transfer from a long-lived donor to a nearby acceptor.)
Chain of Recombinant human factor B (P00751 26-764): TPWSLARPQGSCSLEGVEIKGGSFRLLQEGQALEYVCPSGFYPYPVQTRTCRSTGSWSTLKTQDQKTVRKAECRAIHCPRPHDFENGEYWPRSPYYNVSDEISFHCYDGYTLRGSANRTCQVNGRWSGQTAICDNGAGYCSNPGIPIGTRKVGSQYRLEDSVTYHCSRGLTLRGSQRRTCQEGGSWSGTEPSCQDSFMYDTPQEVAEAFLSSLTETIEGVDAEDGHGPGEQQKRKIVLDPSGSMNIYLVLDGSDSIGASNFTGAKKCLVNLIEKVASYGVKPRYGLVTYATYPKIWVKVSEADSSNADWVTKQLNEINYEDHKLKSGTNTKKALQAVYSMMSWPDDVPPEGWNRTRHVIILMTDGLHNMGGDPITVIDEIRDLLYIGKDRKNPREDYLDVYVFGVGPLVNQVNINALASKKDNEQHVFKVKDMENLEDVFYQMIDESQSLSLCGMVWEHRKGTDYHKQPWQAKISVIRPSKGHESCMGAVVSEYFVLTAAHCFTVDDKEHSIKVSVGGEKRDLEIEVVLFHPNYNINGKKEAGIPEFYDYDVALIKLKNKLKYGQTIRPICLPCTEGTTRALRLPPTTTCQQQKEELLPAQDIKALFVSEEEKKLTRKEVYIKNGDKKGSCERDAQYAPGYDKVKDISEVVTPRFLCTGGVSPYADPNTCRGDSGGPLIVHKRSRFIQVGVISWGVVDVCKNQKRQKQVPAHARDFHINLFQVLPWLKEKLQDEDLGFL
On to `CNC(c1nc2cc(C#N)ccc2[nH]1)(c1c(OC)cc(C)c(Br)c1C)C(F)(F)F` (racemic) [Example 6-E, (±)-2-(1-(3-Bromo-6-methoxy-2,4-dimethylphenyl)-2,2,2-trifluoro-1-(methylamino)ethyl)-1H-benzo[d]imidazole-5-carbonitrile], for which the IC50 stood at 7 µM. Consider `COc1cc(C)c(Br)c(C)c1C(O)(c1nc2cc(C#N)ccc2[nH]1)C(F)(F)F` (racemic) [Example 4, (±)-2-(1-(3-bromo-6-methoxy-2,4-dimethylphenyl)-2,2,2-trifluoro-1-hydroxyethyl)-1H-benzo[d]imidazole-5-carbonitrile], for which the IC50 worked out at 98.9 µM. Consider `COc1cc(C)cc(C)c1C(OCC(N)=O)(c1nc2cc(C#N)ccc2[nH]1)C(F)(F)F` (racemic) [Example 10-C, (±)-2-(1-(5-Cyano-1H-benzo[d]imidazol-2-yl)-2,2,2-trifluoro-1-(2-methoxy-4,6-dimethylphenyl)ethoxy)acetamide], for which the half-maximal inhibitory concentration (IC50) turned out to be 0.47 µM.
